From the NIST ThermoML archive (doi:10.1016/j.jct.2018.02.022)
Numbers after ± are expanded uncertainties.

Assay: xn = mol fraction of the nth substance listed
Details: 92.3 kPa, Liquid; for viscosity: Concentric cylinders viscometry; for speed of sound: Frequency=3 MHz, Single path-length method; for mass density: Vibrating tube method

OCC(O)CO [glycerol] + O
Details	mass density, 303.15 K [kg/m3]	mass density, 308.15 K [kg/m3]	speed of sound, 303.15 K [m/s]	speed of sound, 308.15 K [m/s]	viscosity, 303.15 K [mPa·s]	viscosity, 308.15 K [mPa·s]
x1 = 0.011	1008.02 ± 3.2	1006.3 ± 3.2	1529.5 ± 1.8	1538.8 ± 1.8	–	–
x1 = 0.021	1018.65 ± 3.2	1016.83 ± 3.2	1548 ± 1.8	1556.4 ± 1.8	–	–
x1 = 0.0302	1027.91 ± 3.2	1026.01 ± 3.2	1564.3 ± 1.8	1571.8 ± 1.8	–	–
x1 = 0.0398	1037.12 ± 3.2	1035.13 ± 3.2	1580.8 ± 1.8	1587.3 ± 1.8	–	–
x1 = 0.0546	1050.34 ± 3.3	1048.23 ± 3.3	1604.4 ± 1.8	1609.6 ± 1.8	–	–
x1 = 0.0651	1058.89 ± 3.3	1056.7 ± 3.3	1620.4 ± 1.8	1624.6 ± 1.8	–	–
x1 = 0.0721	1064.55 ± 3.3	1062.31 ± 3.3	1630.6 ± 1.8	1634.3 ± 1.8	–	–
x1 = 0.0793	1069.8 ± 3.3	1067.51 ± 3.3	1640.5 ± 1.8	1643.6 ± 1.8	–	–
x1 = 0.0898	1077.46 ± 3.3	1075.13 ± 3.3	1654.6 ± 1.8	1656.9 ± 1.8	–	–
x1 = 0.0998	1084.34 ± 3.3	1081.93 ± 3.3	1667.4 ± 1.8	1668.9 ± 1.8	2.405 ± 0.34	2.102 ± 0.29
x1 = 0.1198	1096.94 ± 3.3	1094.42 ± 3.3	1690.6 ± 1.8	1690.8 ± 1.8	–	–
x1 = 0.1549	1116.57 ± 3.3	1113.89 ± 3.3	1726.2 ± 1.8	1724.3 ± 1.8	3.932 ± 0.55	3.385 ± 0.47
x1 = 0.2024	1138.25 ± 3.3	1135.43 ± 3.3	1764 ± 1.8	1760.1 ± 1.8	–	–
x1 = 0.2534	1157.11 ± 3.3	1154.17 ± 3.3	1794.9 ± 1.8	1789.3 ± 1.8	8.807 ± 1.2	7.44 ± 1
x1 = 0.2959	1170.15 ± 3.3	1167.15 ± 3.3	1814.7 ± 1.8	1808.1 ± 1.8	12.34 ± 1.7	10.25 ± 1.4
x1 = 0.3504	1184.07 ± 3.3	1181.02 ± 3.3	1834.3 ± 1.8	1826.7 ± 1.8	18.45 ± 2.6	14.92 ± 2.1
x1 = 0.4006	1194.81 ± 3.3	1191.72 ± 3.3	1848 ± 1.8	1839.7 ± 1.8	26.45 ± 3.7	20.87 ± 2.9
x1 = 0.4477	1203.34 ± 3.3	1200.23 ± 3.3	1857.9 ± 1.8	1849 ± 1.8	36.01 ± 5	27.91 ± 3.9
x1 = 0.4983	1211.29 ± 3.3	1208.14 ± 3.3	1866.4 ± 1.8	1857.6 ± 1.8	49.18 ± 6.9	37.43 ± 5.2
x1 = 0.5471	1218.12 ± 3.3	1214.97 ± 3.3	1872.9 ± 1.8	1863.4 ± 1.8	65.39 ± 9.2	49.12 ± 6.9
x1 = 0.6046	1224.8 ± 3.3	1221.64 ± 3.3	1878.8 ± 1.8	1869 ± 1.8	91.76 ± 13	65.97 ± 9.2
x1 = 0.6469	1229.27 ± 3.3	1226.11 ± 3.3	1882.3 ± 1.8	1872.2 ± 1.8	116.57 ± 16	85.3 ± 12
x1 = 0.7006	1234.31 ± 3.4	1231.15 ± 3.3	1886 ± 1.8	1875.7 ± 1.8	154.03 ± 22	111.01 ± 16
x1 = 0.7465	1238.26 ± 3.4	1235.11 ± 3.4	1888.8 ± 1.8	1878.4 ± 1.8	196.75 ± 28	140.28 ± 20
x1 = 0.7942	1241.97 ± 3.4	1238.83 ± 3.4	1891.5 ± 1.8	1880.9 ± 1.8	245.24 ± 35	172.49 ± 24
x1 = 0.8497	1245.72 ± 3.4	1242.6 ± 3.4	1894.1 ± 1.8	1883.6 ± 1.8	314.35 ± 45	218.85 ± 31
x1 = 0.8993	1248.75 ± 3.4	1245.64 ± 3.4	1895.6 ± 1.8	1884.6 ± 1.8	391.29 ± 56	270.27 ± 38
x1 = 0.9196	1250 ± 3.4	1246.89 ± 3.4	1896.7 ± 1.8	1885.5 ± 1.8	–	–
x1 = 0.9322	1250.72 ± 3.4	1247.62 ± 3.4	1896.9 ± 1.8	1885.8 ± 1.8	–	–
x1 = 0.9462	1251.51 ± 3.4	1248.4 ± 3.4	1897.2 ± 1.9	1886.3 ± 1.9	477.66 ± 68	326.69 ± 46
x1 = 0.9562	1252.03 ± 3.4	1248.93 ± 3.4	1897.8 ± 1.9	1886.6 ± 1.9	–	–
x1 = 0.9855	1253.69 ± 3.4	1250.59 ± 3.4	1898.9 ± 1.9	1887.5 ± 1.9	–	–
x1 = 1	1254.48 ± 3	1251.38 ± 3	1899.6 ± 1.9	1888.1 ± 1.9	593.09 ± 85	401.76 ± 57
